Assays:
IKK-2 = molecular target: T1, IKK-2 (Homo sapiens, UniProt O14920, S177E/S181E); test: IKK-2 screening assay (IKK2EE 33P Assay / IKK2EE NEMO HTRF Assay); format: biochemical
T1 sequence (O14920 1-756 S177E/S181E): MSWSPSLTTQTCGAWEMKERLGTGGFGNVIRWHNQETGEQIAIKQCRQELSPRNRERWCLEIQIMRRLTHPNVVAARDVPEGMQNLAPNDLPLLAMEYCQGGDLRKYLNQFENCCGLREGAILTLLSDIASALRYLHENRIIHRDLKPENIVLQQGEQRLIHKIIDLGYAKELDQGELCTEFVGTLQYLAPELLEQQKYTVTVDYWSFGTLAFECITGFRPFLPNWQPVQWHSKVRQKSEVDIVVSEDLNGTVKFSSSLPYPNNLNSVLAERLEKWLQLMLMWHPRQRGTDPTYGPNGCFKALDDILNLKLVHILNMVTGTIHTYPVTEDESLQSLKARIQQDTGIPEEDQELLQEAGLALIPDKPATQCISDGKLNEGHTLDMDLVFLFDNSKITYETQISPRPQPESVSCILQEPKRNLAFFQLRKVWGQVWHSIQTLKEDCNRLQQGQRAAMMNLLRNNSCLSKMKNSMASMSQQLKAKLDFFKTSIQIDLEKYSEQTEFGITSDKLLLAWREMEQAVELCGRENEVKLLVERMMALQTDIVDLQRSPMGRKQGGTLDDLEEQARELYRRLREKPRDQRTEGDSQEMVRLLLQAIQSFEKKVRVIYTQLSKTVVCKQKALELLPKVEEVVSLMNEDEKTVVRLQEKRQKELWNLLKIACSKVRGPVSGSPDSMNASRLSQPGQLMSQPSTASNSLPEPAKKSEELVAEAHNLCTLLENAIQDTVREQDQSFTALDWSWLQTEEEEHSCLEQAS
Procedure: The following is an example of an assay that can be used to determine the IKK2EE inhibitory activity of a test compound.
A reaction buffer (pH 7.8) is prepared containing HEPES (20 mM), MgCl2 (10 mM), EDTA (0.1 mM), DTT (1 mM) and Triton X-100 (0.004%). IKK2EE (0.75 μg/ml is used. GST-IKBα (50 μg/ml) is used as substrate. Adenosine 5′-triphosphate (1.5 μM with ^33P-ATP 5 nCi/μl) is used. Reactions are stopped with trichloroacetic acid (6.25%).
Appropriate amounts of test compounds or controls in 100% DMSO are added to the assay plate. A peptide-substrate solution (PSS) is prepared by adding peptide stock to an appropriate volume of buffer (peptide concentration in the PSS will be about 100 μg/ml). An enzyme-peptide solution (EPS) is prepared by adding enzyme stock to an appropriate volume of PSS (the enzyme concentration in the EPS will be about 1 μg/ml). An ATP solution is prepared by adding ATP stock to an appropriate volume of buffer (the ATP concentration will be 15 μM).
85 μl of EPS is added to the assay wells (or PSS to positive control wells) of 96 well polypropylene plates. The ATP solution is then completed by adding ^33P-ATP (to a final concentration of 50 μCi/ml).
The reaction is initiated by adding 10 μl ATP solution to each well. Plates are shaken from about 12 seconds and allowed to incubate at room temperature for 1 hours. 100 μl of trichloroacetic acid solution (12.5%) is added to stop the reaction and the plates are incubated at room temperature for at least 10 minutes. The assay plates are harvested onto a Millipore Multiscreen harvest Plate FC using an appropriate harvester and the harvest plates are washed with 1×PBS solution for about 10 seconds (continuous flow). Harvest plates are allowed to dry thoroughly and the bottoms of the plates are sealed. 20-50 μl of Microscint20 is added to each well, tops are sealed and plates are read using an appropriate scintillation counter.
A reaction buffer (pH 7.6) is prepared containing HEPES (20 mM), MgCl2 (10 mM), EDTA (0.05 mM), DTT (1 mM) and Triton X-100 (0.004%). IKK2EE-NEMO (0.7 μg/ml is used. GST-IKBα (0.5 μg/ml) is used as substrate. Adenosine 5′-triphosphate (1.5 μM) is used. Detection reagents used are mouse anti-P-IKBα (30 ng/ml), Eu anti-mouse (300 ng/ml) and Cy5 anti-GST (11.5 μg/ml). Reactions are stopped with EDTA (20 mM).
An enzyme solution (ES) is prepared by adding enzyme stock to an appropriate volume of buffer (enzyme concentration in the ES will be about 1.7 ng/ml). A detection mixture (DM) is prepared by adding ATP (final conc. 3.75 μM), mouse anti-P-IKBα (final conc. 75 ng/ml), GST-IKBα (final conc. 1.26 μg/ml), Eu anti-mouse in buffer (final conc. 750 ng/ml).
5 μl of compound (solvated in 10% DMSO) is added to assay wells (or 10% DMSO to control wells) of low binding reaction plates. […] ES is added to assay wells (or buffer to control wells) and the reaction is initiated by adding 10 μl DM to all wells. Plates are incubated at room temperature for 45 minutes. Stop mixture is prepared by adding EDTA (final conc. 70 mM) and Cy5 anti-GST (final conc. 40 μg/ml) to an appropriate volume of buffer. Stop mixture is added and plates are shaken for 20 seconds and incubated at room temperature for at least 3 hours (preferably in the dark). Plates are read on an Analyst HT using Multi-Method HTRF.

mTOR = mTOR (Homo sapiens, UniProt P42345); test: mTOR HTR-FRET Assay; format: biochemical
Procedure: The following is an example of an assay that can be used to determine the mTOR inhibitory activity of a test compound. Reagents are prepared as follows:
“Simple TOR buffer” (used to dilute high glycerol TOR fraction): 10 mM Tris pH 7.4, 10 mM NaCl, 0.1% Tween-20, 1 mM DTT (from 1M stock frozen at −20° C. just prior to use). For convenience a large quantity of “Simple TOR buffer” w/o DTT can be stored at 4° C. It can be brought to room temperature and DTT added just prior to dilution of TOR fraction.
5XKB/5XMn/5×ATP solution (used to dilute substrate GST-p70S6kin 81 a.a. just prior to use) (40 ml screen quantity shown):
Enzyme solution: Dilute TOR fraction 1:14 in “Simple TOR Buffer”. For current lot that is 640 μg/ml TOR fraction diluted 14× to yield 45.7 μg/ml TOR in buffer (i.e. 7.85 ml TOR pooled fraction+102.1 ml Simple TOR buffer=110 ml 14× diluted TOR fraction). Each Enzyme Lot must be QC'd prior to assay.
Substrate solution: This may be prepared just prior to assay if preferred. Dilute 5.3 mg/ml GST-p70S6kinase fragment stock to 3.5 μg/ml (97 nM) working stock in 5XKB/5XMn/5×ATP solution (i.e. 26.41 μL (5.3 mg/ml) GST-p70S6+40 ml 5XKB/5XMn/5×ATP=40 ml 3.5 μg/ml (97 nM)).
Assay Buffer (for dilution of Antibodies used in Antibody Detection Reagent):
Antibody Detection Reagent (this reagent should be made just prior to addition to Assay Plates):
Using PlateTrak program (Screen) or Matrix Pipettor (SAR), 19.5 μL of diluted TOR fraction is added to assay plate in all test, reference or positive control wells. 19.5 μL of “Simple TOR buffer” is added to all negative control wells. If treating multiple plates with the same compounds, can increase volume of enzyme to multiples of 19.5 μL in a tall 384 well polypropylene plate.
Using EP3, 0.5 μl of test, reference or control DMSO is added to each well with mixing. Plates are incubated for 30 minutes at room temperature.
Using PlateTrak program (Screen) or Matrix Pipettor (SAR) 5 μL of 5XKB/5XMn/5×ATP/5× substrate solution is added to each well of the assay plate to start the reaction. The solutions are mixed well and incubated for 2 hours at room temperature.
Using PlateTrak program (Screen) or Matrix Pipettor (SAR) 5 μL of 60 mM EDTA is added to stop the reaction. The solutions are mixed well and allowed to sit for 15-20 minutes before the next step.
Using PlateTrak program (Screen) or Matrix Pipettor (SAR) 10 μl of Antibody Detection Reagent is added. The solutions are mixes well and incubated for 5 hours to O/N to allow antibodies to form complexes with phosphorylated substrate.
Plates are read on AnalystHT using protocol Multi-Method protocol.

Tyk2 = molecular target: T2, Tyk2 (Homo sapiens, UniProt P29597); test: Tyk2 HTRF Assay; format: biochemical
T2 construct: 450 ng/ml TYK2 KD (Cama Biosciences 08-147 Lot 06CBS-3022D); purchased Cama Biosciences (so in the source)
T2 sequence (P29597 897-1176 limits assumed): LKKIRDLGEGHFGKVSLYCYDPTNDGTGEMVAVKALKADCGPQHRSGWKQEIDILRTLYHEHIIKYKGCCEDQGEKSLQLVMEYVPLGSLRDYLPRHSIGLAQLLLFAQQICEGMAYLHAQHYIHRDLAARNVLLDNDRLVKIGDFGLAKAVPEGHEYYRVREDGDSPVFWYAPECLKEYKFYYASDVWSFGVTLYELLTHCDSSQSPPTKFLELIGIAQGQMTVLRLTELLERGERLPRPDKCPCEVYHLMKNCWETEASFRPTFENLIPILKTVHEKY
Procedure: The following is an example of an assay that can be used to determine the Tyk2 inhibitory activity of a test compound.
25 μl/well DMSO is added to Columns 2 and 14 (except 28.5 μl is added to well P14 of Greiner 384-well polypropylene plate). 20 μl/well DMSO is added to all remaining wells.
5 mM compound solutions are added by addition of 5 μl of 30 mM compound to 25 μl DMSO in Columns 2 and 14 of plate. 1.5 mM reference control is prepared by addition of 1.5 μl of 30 mM JAK3 Inhibitor VI to 28.5 μl DMSO in Well P14.
Serial dilution is then performed by the following steps: (i) Compounds in Column 2 are mixed by pipetting 20 μl up and down 6X; (ii) 10 μl/well compounds in DMSO are transferred from one column to the next column for Columns 2-11; (iii) wells are mixed by pipetting 20 μl up and down 6×; (iv) tips are washed 3×25 μl DMSO, 2×25 μl next DMSO; (v) steps i-iv repeated for Columns 14-23.
The following buffers are prepared:
Assay Buffer: 50 mM HEPES pH 7.6; 1 mM DTT; 10 mM MgCl2; 0.01% Triton X100; 0.01% BSA; and 0.1 mM EDTA.
Kinase in Assay Buffer: 450 ng/ml TYK2 KD (Cama Biosciences 08-147 Lot 06CBS-3022D).
Substrate/Detection Mixture (1×ATP) in Assay Buffer: 188 nM DyLight 647-Streptavidin (Pierce 21824); 5 μM Biotin-EQEDEPEGDYFEWLE (Lyn Substrate Peptide); 750 ng/ml Eu-anti-phospho-Tyrosine (PerkinElmer AD0069); 62.5 μM ATP; 80 nM Substrate Peptide (American Peptide Company 332722).
Substrate/Detection Mixture (20×ATP) in Assay Buffer: 188 nM DyLight 647-Streptavidin; 5 μM Biotin-EQEDEPEGDYFEWLE; 750 ng/ml Eu-anti-phospho-Tyrosine; 1250 μM ATP; 80 nM Substrate Peptide.
14.5 μl/well Enzyme Mix or Dilution Buffer (Background Controls) is added to Costar 384 well black plates.
Compound addition and mixture is performed by the following steps: (i) 0.5 μl/well DMSO/compounds in DMSO is transferred from Greiner 384-well polypropylene plate to a plate containing 14.5 μl/well Enzyme Mix and Dilution Buffer; (ii) mixed by pipetting 10 μl up and down 4×; (iii) tips are washed 4×10 μl in DMSO, 2×20 μl in other DMSO; (iv) steps i-iii are repeated until all plates are completed.
10 μl/well Substrate/Detection Mixtures is added and incubated at room temperature 2 hours (on shaker for first 2+ minutes).
10 μl/well 50 mM EDTA/0.01% Triton X100 is added and incubated >15 minutes at room temperature (on shaker for first 2+ minutes).
Plates are read at 665 nm and 620 nm emission on Analyst GT protocol HTRF_SP_A (Counts= 665/620×10000).

Row | SMILES | IC50 (IKK-2) | melting point | IC50 (mTOR) | IC50 (Tyk2)
1 | NC(=O)c1nc(-c2cccnc2)nc2c1ncn2-c1ccccc1 [Compound 35, 9-phenyl-2-(pyridin-3-yl)-9H-purine-6-carboxamide] | 5.1 to 10 µM | 298 to 299 °C | 20.1 to 30 µM | 
2 | NC(=O)c1nc(-c2cccnc2)nc2c1NC(=O)CN2c1ccccc1 [Compound 36, 6-oxo-8-phenyl-2-(pyridin-3-yl)-5,6,7,8-tetrahydropteridine-4-carboxamide] | > 30 µM | 294 to 296 °C | > 30 µM | 
3 | NC(=O)c1nc(-c2ccncc2)nc2c1NC(=O)CN2c1ccccc1 [Compound 37, 6-oxo-8-phenyl-2-(pyridin-4-yl)-5,6,7,8-tetrahydropteridine-4-carboxamide] | > 30 µM | 298 to 304 °C | 10.1 to 20 µM | 
4 | CNC(=O)c1nc(-c2cccc(O)c2)nc2c1[nH]c(=O)n2-c1ccccc1OC [Compound 42, [2-(3-Hydroxyphenyl)-9-(2-methoxyphenyl)-8-oxo(7-hydropurin-6-yl)]-N-methylcarbox-amide] |  | 339 °C | > 30 µM | > 30 µM

Further lines, results first:

Row | IC50 (IKK-2) | melting point | IC50 (mTOR) | IC50 (Tyk2) | SMILES
5 | > 30 µM | 328 to 330 °C | 10.1 to 20 µM |  | N#Cc1cccc(-c2nc(C(N)=O)c3[nH]c(=O)n(-c4ccccc4)c3n2)c1 [Compound 27, 2-(3-cyanophenyl)-8-oxo-9-phenyl-8,9-dihydro-7H-purine-6-carboxamide]
6 |  | 366 to 368 °C | 0.1 to 5 µM | 10.1 to 20 µM | NC(=O)c1nc(-c2cccc(O)c2)nc2c1[nH]c(=O)n2[C@H]1CC[C@H](O)CC1 [Compound 47, 9-(trans-4-Hydroxycyclohexyl)-2-(3-hydroxyphenyl)-8-oxo-8,9-dihydro-7H-purine-6-carboxamide]
